According to ChEMBL document CHEMBL3813687, “A combined ligand- and structure-based approach for the identification of rilmenidine-derived compounds which synergize the antitumor effects of doxorubicin” (Bioorg Med Chem, 2016):
Active and inactive are the calls of the source. No cut-off for these calls is given here.

Tests used:
Nischarin [1] = molecular target: T1, Nischarin (Rattus norvegicus, UniProt Q4G017); test: Displacement of [125I]PIC from Imidazoline-1 receptor in rat PC12 cell membrane by gamma counting method; type: cell membranes, PC-12
[2] = Displacement of [3H]-clonidine from Imidazoline-1 receptor in bovine chromaffin cell membranes incubated for 40 mins in presence of RX821002; parameters: species or system Bos taurus
Nischarin [3] = molecular target: T1, Nischarin; test: Displacement of [125I]PIC from Imidazoline-1 receptor in rat PC12 cell membrane incubated for 30 mins by gamma counting method; type: cell membranes, PC-12
K562 [4] = test: Induction of apoptosis in human K562 cells assessed as early apoptotic cells at 1 uM after 48 hrs by Annexin V-FITC/propidium iodide staining based flow cytometry (reference value: 5%); type: functional
K562 [5] = test: Induction of apoptosis in human K562 cells assessed as early apoptotic cells at 1 uM after 48 hrs by Annexin V-FITC/propidium iodide staining based flow cytometry relative to control; type: functional
K562 [6] = test: Induction of apoptosis in human K562 cells assessed as late apoptotic cells at 1 uM after 48 hrs by Annexin V-FITC/propidium iodide staining based flow cytometry (reference value: 1%); type: functional
K562 [7] = test: Induction of apoptosis in human K562 cells assessed as necrotic cells at 1 uM after 48 hrs by Annexin V-FITC/propidium iodide staining based flow cytometry (reference value: 1%); type: functional
K562 [8] = test: Cell cycle arrest in human K562 cells assessed as increase in G2/M cell population after 48 hrs by propidium iodide staining based flow cytometry; type: functional
K562 [9] = test: Antiproliferative activity against human K562 cells assessed as inhibition of cell survival after 48 hrs by MTT assay; type: functional, cell-based; conditions: K562, 48 h
[10] = molecular target: T2, Alpha-2A adrenergic receptor (Homo sapiens, UniProt P08913); test: Intrinsic activity at recombinant human alpha2A adrenoreceptor expressed in CHOK1 cell membrane incubated for 30 mins by [35S]GTPgammaS binding assay relative to adrenaline; type: cell membranes; conditions: CHO-K1, human, 0.5 h; read-out: Intrinsic activity
T2 sequence (P08913 whole entry): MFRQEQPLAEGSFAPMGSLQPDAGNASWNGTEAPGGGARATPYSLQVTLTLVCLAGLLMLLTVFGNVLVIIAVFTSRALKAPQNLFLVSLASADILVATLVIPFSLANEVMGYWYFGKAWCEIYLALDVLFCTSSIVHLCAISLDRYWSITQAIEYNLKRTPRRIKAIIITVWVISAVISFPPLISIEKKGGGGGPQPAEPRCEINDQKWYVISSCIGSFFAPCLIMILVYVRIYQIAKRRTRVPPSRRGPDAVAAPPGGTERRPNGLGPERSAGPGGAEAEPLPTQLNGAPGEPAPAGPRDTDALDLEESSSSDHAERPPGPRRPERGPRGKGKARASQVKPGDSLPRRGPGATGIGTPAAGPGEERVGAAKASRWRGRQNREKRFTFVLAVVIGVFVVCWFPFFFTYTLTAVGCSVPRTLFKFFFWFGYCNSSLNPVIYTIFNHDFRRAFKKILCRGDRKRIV

[11] = molecular target: T2, Alpha-2A adrenergic receptor; test: Displacement of [3H]RS-79948-197 from recombinant human alpha2A adrenoreceptor expressed in CHOK1 cell membrane by scintillation counting method; type: cell membranes, CHO-K1; conditions: read-out: Ki(app)
K562 [12] = test: Induction of apoptosis in human K562 cells assessed as early apoptotic cells at 300 uM after 24 hrs by Annexin V-FITC/propidium iodide staining based flow cytometry (reference value: 5%); type: functional
K562 [13] = test: Induction of apoptosis in human K562 cells assessed as early apoptotic cells at 300 uM after 48 hrs by Annexin V-FITC/propidium iodide staining based flow cytometry (reference value: 5%); type: functional
[14] = Displacement of [3H]-clonidine from Imidazoline-1 receptor in bovine adrenal medullary plasma membrane incubated for 40 mins in presence of RX821002; parameters: species or system Bos taurus

T1 sequence (Q4G017 whole entry): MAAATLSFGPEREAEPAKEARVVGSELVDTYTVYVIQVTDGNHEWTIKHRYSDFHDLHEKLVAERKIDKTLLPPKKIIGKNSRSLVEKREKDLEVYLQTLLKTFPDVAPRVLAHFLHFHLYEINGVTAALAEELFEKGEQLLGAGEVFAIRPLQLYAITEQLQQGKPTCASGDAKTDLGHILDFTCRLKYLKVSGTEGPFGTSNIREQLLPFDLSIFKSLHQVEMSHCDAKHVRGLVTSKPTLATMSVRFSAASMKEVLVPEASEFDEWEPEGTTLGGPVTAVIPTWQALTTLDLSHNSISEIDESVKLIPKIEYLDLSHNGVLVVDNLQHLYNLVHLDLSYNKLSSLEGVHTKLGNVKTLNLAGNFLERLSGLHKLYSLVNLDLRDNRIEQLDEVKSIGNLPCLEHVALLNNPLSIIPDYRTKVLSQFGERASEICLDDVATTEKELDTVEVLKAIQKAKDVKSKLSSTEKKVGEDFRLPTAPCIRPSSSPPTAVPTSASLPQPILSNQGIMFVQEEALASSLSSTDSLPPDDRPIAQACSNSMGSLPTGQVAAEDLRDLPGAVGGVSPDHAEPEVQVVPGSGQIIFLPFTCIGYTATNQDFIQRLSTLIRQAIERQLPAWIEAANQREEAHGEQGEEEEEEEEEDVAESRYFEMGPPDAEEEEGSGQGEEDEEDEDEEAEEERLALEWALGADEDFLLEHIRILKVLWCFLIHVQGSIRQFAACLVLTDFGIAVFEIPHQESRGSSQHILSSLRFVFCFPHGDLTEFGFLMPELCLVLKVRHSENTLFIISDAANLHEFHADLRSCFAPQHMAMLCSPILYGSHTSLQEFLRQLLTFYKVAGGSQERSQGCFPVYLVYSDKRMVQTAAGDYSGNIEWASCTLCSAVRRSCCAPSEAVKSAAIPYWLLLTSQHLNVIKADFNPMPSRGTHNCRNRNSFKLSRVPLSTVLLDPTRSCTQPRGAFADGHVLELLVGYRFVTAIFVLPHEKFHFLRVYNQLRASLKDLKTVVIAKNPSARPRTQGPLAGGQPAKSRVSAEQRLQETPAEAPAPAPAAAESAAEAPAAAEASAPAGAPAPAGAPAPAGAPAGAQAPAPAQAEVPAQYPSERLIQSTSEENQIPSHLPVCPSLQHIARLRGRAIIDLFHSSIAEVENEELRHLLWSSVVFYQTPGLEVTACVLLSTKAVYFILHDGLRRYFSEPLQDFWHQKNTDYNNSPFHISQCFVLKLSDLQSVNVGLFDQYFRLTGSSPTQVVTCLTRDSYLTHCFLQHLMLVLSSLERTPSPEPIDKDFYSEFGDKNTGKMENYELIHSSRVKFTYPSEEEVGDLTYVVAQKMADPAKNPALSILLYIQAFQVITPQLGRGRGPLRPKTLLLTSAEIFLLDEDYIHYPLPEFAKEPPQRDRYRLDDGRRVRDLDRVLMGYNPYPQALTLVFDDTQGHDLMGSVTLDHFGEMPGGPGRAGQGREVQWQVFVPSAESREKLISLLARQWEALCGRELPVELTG

Question: With `c1ccc2c(c1)OCC(C1=NCCN1)O2` (centres undefined) [IDAZOXAN] as the compound, how does the Ki (Nischarin [1]) read?
Answer: 1.26 µM

Question: Which Ki (Nischarin [1]) does the source give for `c1ccc([C@H]2C[C@@H]2C2=NCCN2)cc1` here?
Answer: 0.347 µM

Question: For `CC1CCC(NC(C2CC2)C2CC2)=N1` (centres undefined), which pKi [2] is on record?
Answer: 5.8

Question: With `Clc1cc(I)cc(Cl)c1N=C1NCCN1` [PI-CLONIDINE] as the compound, how does the Ki (Nischarin [3]) read?
Answer: 0.000794 µM

Question: Which pKi [2] does the source give for `CCC(NC1=NCCC1)C1CC1` (centres undefined) here?
Answer: 6.29

Question: Which Ki (Nischarin [1]) does the source give for `CC(CC1=NCCN1)c1ccccc1` (centres undefined) here?
Answer: 7.24 µM

Question: With `COc1cccc2c1C(=O)c1c(O)c3c(c(O)c1C2=O)C[C@@](O)(C(=O)CO)C[C@@H]3O[C@H]1C[C@H](N)[C@H](O)[C@H](C)O1` [DOXORUBICIN] as the compound, how does the Activity (K562 [4]) read?
Answer: 20%

Question: And the Activity (K562 [5])?
Answer: 10%

Question: What about the Activity (K562 [6]) of the same compound?
Answer: 0%

Question: What about the Activity (K562 [7]) of the same compound?
Answer: 0%

Question: And the Activity (K562 [8])?
Answer: Active

Question: And the IC50 (K562 [9])?
Answer: 1 µM

Question: Which results are given for `CCCCCn1c(C)cc(NCc2ccccc2)cc1=O`?
Answer: Emax [10]: -12%; IC50 (K562 [9]): > 300 µM; Ki [11]: 41 µM

Question: With `C(=C\c1ccccc1)/C1=NCCN1` [TRACIZOLINE] as the compound, how does the Ki (Nischarin [1]) read?
Answer: 0.0191 µM

Question: For `CCC1CCC(NC(C2CC2)C2CC2)=N1` (centres undefined), which pKi [2] is on record?
Answer: 6.77

Question: What does the source list for `COc1nc(C)nc(Cl)c1NC1=NCCN1` [MOXONIDINE]?
Answer: Activity (K562 [12]): 2.31%; Activity (K562 [13]): 2.68%

Question: Which pKi [14] does the source give for `NC1=NCC(COc2ccccc2Br)O1` (centres undefined) here?
Answer: 8.19

Question: Which Ki (Nischarin [3]) does the source give for `CC1CCC(=Nc2ccc(I)cc2Cl)N1` (centres undefined) here?
Answer: 0.000178 µM

Question: With `CCC1(c2cnc[nH]2)Cc2ccccc2C1` [ATIPAMEZOLE] as the compound, how does the Ki [11] read?
Answer: 0.0012 µM

Question: With `Cc1ccc(F)c(C2=NCCN2)c1` as the compound, how does the pKi [14] read?
Answer: 8.28

Question: For `Cc1cc(NCc2ccc(C(F)(F)F)cc2)cc(=O)n1CC(C)C`, which Emax [10] is on record?
Answer: -6%

Question: And the IC50 (K562 [9])?
Answer: 222 µM

Question: And the Ki [11]?
Answer: 58 µM

Question: For `CCCCCNc1cc(C)n(CCCCC)c(=O)c1`, which Emax [10] is on record?
Answer: -18%

Question: And the IC50 (K562 [9])?
Answer: 115 µM

Question: And the Ki [11]?
Answer: 62 µM
